# In ChEMBL document CHEMBL4364346, “Structure optimization of a new class of PPARγ antagonists” (Bioorg Med Chem, 2019):
# The source made the active and inactive calls. The rule behind the calls is not given here.
# Assays:
# [1] = Cmax in Swiss CD1 mouse at 1 mg/kg, ip measured upto 7 hrs by LC-MS analysis; format: ADME, organism-based; design: dose 1 mg/kg, route intraperitoneal; settings: in vivo
# [2] = Tmax in Swiss CD1 mouse at 1 mg/kg, ip measured upto 7 hrs by LC-MS analysis; format: ADME, organism-based; settings: in vivo
# [3] = Plasma concentration in Swiss CD1 mouse at 10 mg/kg, ip measured upto 4 hrs by LC-MS analysis; format: ADME, organism-based
# [4] = biological target: T1, Peroxisome proliferator-activated receptor alpha (Homo sapiens) (UniProt Q07869); assay: Agonist activity at recombinant human pFA-CMV fused PPARalpha LBD transfected in HEK293T cells assessed as PPARalpha activation at 1 uM incubated for 12 to 14 hrs by dual glo luciferase reporter gene assay; format: cell-based
# T1 sequence (whole entry): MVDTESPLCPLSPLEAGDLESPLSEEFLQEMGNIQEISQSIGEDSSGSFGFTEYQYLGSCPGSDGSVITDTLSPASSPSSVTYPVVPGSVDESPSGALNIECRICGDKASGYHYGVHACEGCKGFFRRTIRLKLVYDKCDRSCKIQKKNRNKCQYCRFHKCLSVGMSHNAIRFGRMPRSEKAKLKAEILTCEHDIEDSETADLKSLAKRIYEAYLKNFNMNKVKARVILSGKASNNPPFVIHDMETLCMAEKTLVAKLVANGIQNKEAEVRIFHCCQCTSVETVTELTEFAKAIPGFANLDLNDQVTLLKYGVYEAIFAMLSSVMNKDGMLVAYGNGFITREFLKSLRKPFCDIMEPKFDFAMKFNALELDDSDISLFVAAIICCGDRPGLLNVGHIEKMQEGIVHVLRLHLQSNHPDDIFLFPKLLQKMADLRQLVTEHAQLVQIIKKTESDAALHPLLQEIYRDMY
# [5] = biological target: T2, Peroxisome proliferator-activated receptor delta (Homo sapiens) (UniProt Q03181); assay: Agonist activity at recombinant human pFA-CMV fused PPARdelta LBD transfected in HEK293T cells assessed as PPARdelta activation at 1 uM incubated for 12 to 14 hrs by dual glo luciferase reporter gene assay; format: cell-based
# T2 sequence (whole entry): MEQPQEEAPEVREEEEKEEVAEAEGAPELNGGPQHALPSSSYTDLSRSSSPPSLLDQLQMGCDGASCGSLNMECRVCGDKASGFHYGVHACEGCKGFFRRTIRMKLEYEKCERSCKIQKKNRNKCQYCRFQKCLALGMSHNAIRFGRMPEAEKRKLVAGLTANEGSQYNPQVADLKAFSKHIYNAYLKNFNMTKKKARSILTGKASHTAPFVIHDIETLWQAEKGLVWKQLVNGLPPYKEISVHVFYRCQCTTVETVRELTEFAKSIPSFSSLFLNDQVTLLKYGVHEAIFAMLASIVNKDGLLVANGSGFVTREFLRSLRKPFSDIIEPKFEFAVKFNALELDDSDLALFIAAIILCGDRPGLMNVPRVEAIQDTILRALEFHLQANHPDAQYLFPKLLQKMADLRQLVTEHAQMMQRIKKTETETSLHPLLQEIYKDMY
# [6] = biological target: T3, Retinoic acid receptor RXR-alpha (Homo sapiens) (UniProt P19793); assay: Agonist activity at recombinant human pFA-CMV fused RXRalpha LBD transfected in HEK293T cells assessed as RXRalpha activation at 1 uM incubated for 12 to 14 hrs by dual glo luciferase reporter gene assay; format: cell-based
# T3 sequence (whole entry): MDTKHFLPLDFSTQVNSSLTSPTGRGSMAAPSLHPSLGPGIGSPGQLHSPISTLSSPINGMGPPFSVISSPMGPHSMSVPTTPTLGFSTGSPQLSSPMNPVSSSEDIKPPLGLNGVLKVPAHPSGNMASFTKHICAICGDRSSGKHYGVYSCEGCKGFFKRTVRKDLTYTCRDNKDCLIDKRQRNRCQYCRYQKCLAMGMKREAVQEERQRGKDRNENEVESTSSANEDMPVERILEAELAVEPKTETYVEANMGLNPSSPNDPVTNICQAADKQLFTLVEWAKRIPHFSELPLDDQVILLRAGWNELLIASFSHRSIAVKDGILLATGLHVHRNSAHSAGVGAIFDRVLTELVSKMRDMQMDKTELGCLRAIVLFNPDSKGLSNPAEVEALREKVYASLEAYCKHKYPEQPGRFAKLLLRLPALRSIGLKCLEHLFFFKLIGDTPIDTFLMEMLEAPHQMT
# [7] = biological target: T4, Retinoic acid receptor alpha (Homo sapiens) (UniProt P10276); assay: Agonist activity at recombinant human pFA-CMV fused RARalpha LBD transfected in HEK293T cells assessed as RARalpha activation at 1 uM incubated for 12 to 14 hrs by dual glo luciferase reporter gene assay; format: cell-based
# T4 sequence (whole entry): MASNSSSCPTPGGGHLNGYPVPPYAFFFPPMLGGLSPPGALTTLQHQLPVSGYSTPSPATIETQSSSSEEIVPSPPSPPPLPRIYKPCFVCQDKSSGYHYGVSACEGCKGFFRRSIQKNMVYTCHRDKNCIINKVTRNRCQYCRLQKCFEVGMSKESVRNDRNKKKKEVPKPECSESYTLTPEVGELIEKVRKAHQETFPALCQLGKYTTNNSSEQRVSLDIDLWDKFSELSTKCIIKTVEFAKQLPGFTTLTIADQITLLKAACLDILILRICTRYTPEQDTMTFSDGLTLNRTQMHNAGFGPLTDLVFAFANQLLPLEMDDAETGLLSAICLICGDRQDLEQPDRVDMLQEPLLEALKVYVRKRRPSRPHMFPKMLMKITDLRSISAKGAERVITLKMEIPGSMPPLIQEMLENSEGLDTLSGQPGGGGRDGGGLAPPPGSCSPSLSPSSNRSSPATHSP
# [8] = biological target: T5, Nuclear receptor subfamily 1 group I member 3 (Homo sapiens, UniProt Q14994); assay: Agonist activity at recombinant human pFA-CMV fused CAR LBD transfected in HEK293T cells assessed as CAR activation at 1 uM incubated for 12 to 14 hrs by dual glo luciferase reporter gene assay; format: cell-based
# T5 sequence (Q14994 whole entry): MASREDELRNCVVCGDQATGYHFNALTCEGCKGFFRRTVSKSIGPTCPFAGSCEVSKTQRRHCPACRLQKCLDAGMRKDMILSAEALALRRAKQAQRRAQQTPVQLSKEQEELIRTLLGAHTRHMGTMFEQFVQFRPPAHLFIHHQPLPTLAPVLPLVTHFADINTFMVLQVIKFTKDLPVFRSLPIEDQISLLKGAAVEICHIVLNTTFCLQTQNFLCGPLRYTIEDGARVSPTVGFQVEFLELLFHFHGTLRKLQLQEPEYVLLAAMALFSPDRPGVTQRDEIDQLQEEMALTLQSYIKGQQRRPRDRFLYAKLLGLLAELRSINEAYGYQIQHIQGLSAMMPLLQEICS
# [9] = biological target: T1, Peroxisome proliferator-activated receptor alpha (Homo sapiens); assay: Antagonist activity at recombinant human pFA-CMV fused PPARalpha LBD transfected in HEK293T cells assessed as reduction in GW7647-induced PPARalpha activation at 1 uM incubated for 12 to 14 hrs by dual glo luciferase reporter gene assay; format: cell-based
# [10] = biological target: T2, Peroxisome proliferator-activated receptor delta (Homo sapiens); assay: Antagonist activity at recombinant human pFA-CMV fused PPARdelta LBD transfected in HEK293T cells assessed as reduction in L165041-induced PPARdelta activation at 1 uM incubated for 12 to 14 hrs by dual glo luciferase reporter gene assay; format: cell-based
Cmax [1] [nM],Tmax [2] [h],concentration at 4 h [3] [nM],Activity [4],Activity [5],Activity [6],Activity [7],Activity [8],Activity [9],Activity [10],SMILES
74,1,59,inactive,inactive,inactive,inactive,Not Active,inactive,inactive,CCC/C(=C\c1cc(OCc2ccc3nc(C(F)(F)F)cc(OC)c3c2)ccc1OCCN1CCN(C)CC1)C(=O)O
60,1,115,inactive,inactive,inactive,inactive,Active,inactive,inactive,CCC/C(=C\c1cc(OCc2ccc3nc(C(F)(F)F)cc(OC)c3c2)ccc1OCC1CCN(C)CC1)C(=O)O
